Publication PMC7949139, “The molecular basis of OH-PCB estrogen receptor activation” (The Journal of Biological Chemistry, 2021)
Where a chain is given by its changes, count along the chain named.

Assays:
Assay type in all cases: biochemical
SULT1E1 F80A/F75A = molecular target: T1, SULT1E1 F80A/F75A (Homo sapiens, UniProt P49888, F75A/F80A); experiment: Initial-rate studies (1-HP sulfonation; OH-PCB1 inhibition), double mutant
T1 construct: E. coli codon-optimized SULT1E1 coding region inserted into the PreScission Protease cleavage site; His/GST/MBP triple tag (N, cleaved yes); made in house; host or cells: E. coli BL21(DE3)
T1 sequence (P49888 1-294 F75A/F80A): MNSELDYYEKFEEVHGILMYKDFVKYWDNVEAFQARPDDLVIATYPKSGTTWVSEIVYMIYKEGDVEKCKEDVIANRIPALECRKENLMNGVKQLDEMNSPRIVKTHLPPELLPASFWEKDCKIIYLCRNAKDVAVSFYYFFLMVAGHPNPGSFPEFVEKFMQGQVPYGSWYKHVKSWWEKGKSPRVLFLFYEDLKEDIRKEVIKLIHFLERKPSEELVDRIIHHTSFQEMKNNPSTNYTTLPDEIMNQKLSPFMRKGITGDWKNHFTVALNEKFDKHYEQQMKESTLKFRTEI
Experimental: (§1) C. Reaction progress was monitored via the fluorescence change associated with 1-HP sulfonation (λex = 325 nm, λem = 370 nm ([51], [52])). Initial rates were measured during conversion to product of ≤5% of the concentration-limiting substrate consumed at the reaction endpoint. Velocities were determined in triplicate. Km and kcat were obtained by (1/v^4)-weighted least-squares fitting of the averaged data in double-reciprocal space (i.e., 1/v versus 1/[S]) ([66], [67]).
(§2) Inhibition studies were performed as described above except: 1-HP was fixed (2.0 μM, 100 × Km), OH-PCBs were added (0.20–20 × Ki), and SULT1E1 was 0.20 nM (active sites). Ki was determined by least-squares fitting to a noncompetitive inhibition model ([66], [67]).

SULT1E1 F80A = molecular target: T2, SULT1E1 F80A (Homo sapiens, UniProt P49888, F80A); experiment: Initial-rate studies (1-HP sulfonation; OH-PCB1 inhibition), F80A mutant
T2 construct: E. coli codon-optimized SULT1E1 coding region inserted into the PreScission Protease cleavage site; His/GST/MBP triple tag (N, cleaved yes); made in house; host or cells: E. coli BL21(DE3)
T2 sequence (P49888 1-294 F80A): T1 sequence (P49888 1-294 F75A/F80A) with A75F
Experimental: as §1, §2

[1] = molecular target: T3, spin-labeled SULT1E1, spin label attached at Cys residue 150 (C69S/N150C) (Homo sapiens, UniProt P49888, C69S/N150C); experiment: Initial-rate studies, spin-labeled construct (label at Cys 150); details: spin label at Cys 150; parentheses = one SD; read-out: Ki OH-PCB1
T3 construct: E. coli codon-optimized SULT1E1 coding region inserted into the PreScission Protease cleavage site; His/GST/MBP triple tag (N, cleaved yes); made in house; host or cells: E. coli BL21(DE3)
T3 sequence (P49888 1-294 C69S/N150C): T1 sequence (P49888 1-294 F75A/F80A) with C69S, A75F, A80F, N150C
Experimental: (§3) Spin labels were attached to the SULT1E1 scaffold at Cys residues that were site-specifically incorporated via PCR-based mutagenesis. Prior to creating spin-label attachment constructs, reactive Cys was removed from the native scaffold. Only one of the four native SULT1E1 Cys (i.e., C69) reacts with DTNB ([39]), and mutagenic conversion of C69 to ser produced a stable, fully active non-DTNB-reactive scaffold. Five individual cys-attachment constructs were prepared from the C69S mutant (G16C, K25C, N150C, Q163C, and N233C). Mutants were labeled (see, Experimental procedures) and the initial rate parameters (kcat, Km and Ki) of each spin-labeled mutant were determined (see, Experimental procedures, Initial-Rate studies) to evaluate whether the catalytic integrity of the constructs had been compromised by the insertions and/or spin label attachments. […]
(§4) Labels (N-cyclohexylmale-imide or 3-maleimido-PROXYL) were added in 20-fold excess over reactive cysteine to a solution containing SULT1E1 construct (50 μM active sites), 0.50 mM PAP, and 50 mM KPO4 (pH 7.4), 25 °C ± 2 deg. […] The reactions were monitored by using DTNB to measure unreacted cysteine and were considered complete when >98% of the cysteine had reacted (∼3 h).
(§5) C. Reaction progress was monitored via the fluorescence change associated with 1-HP sulfonation (λex = 325 nm, λem = 370 nm ([51], [52])). […]

SULT1E1 Y239A = molecular target: T4, SULT1E1 Y239A (Homo sapiens, UniProt P49888, Y239A); experiment: Initial-rate studies (1-HP sulfonation; OH-PCB1 inhibition), Y239A mutant
T4 construct: E. coli codon-optimized SULT1E1 coding region inserted into the PreScission Protease cleavage site; His/GST/MBP triple tag (N, cleaved yes); made in house; host or cells: E. coli BL21(DE3)
T4 sequence (P49888 1-294 Y239A): T1 sequence (P49888 1-294 F75A/F80A) with A75F, A80F, Y239A
Experimental: as §1, §2

[2] = molecular target: T5, spin-labeled SULT1E1, spin label attached at Cys residue 16 (C69S/G16C) (Homo sapiens, UniProt P49888, C69S/G16C); experiment: Initial-rate studies, spin-labeled construct (label at Cys 16); details: spin label at Cys 16; parentheses = one SD; read-out: Ki OH-PCB1
T5 construct: E. coli codon-optimized SULT1E1 coding region inserted into the PreScission Protease cleavage site; His/GST/MBP triple tag (N, cleaved yes); made in house; host or cells: E. coli BL21(DE3)
T5 sequence (P49888 1-294 G16C/C69S): T1 sequence (P49888 1-294 F75A/F80A) with G16C, C69S, A75F, A80F
Experimental: as §3, §4, §5

[3] = noncompetitive inhibition model, parentheses = one SD

SMILES: Oc1ccc(-c2c(Cl)cccc2Cl)cc1 [OH-PCB1, 4ʹ-OH-2,6-dichlorobiphenol]
- Fold Effect = Ki OH-PCB1/Ki OH-PCB1 WT (SULT1E1 F80A/F75A): 113
- Ki (SULT1E1 F80A/F75A; [3]): 6.8 µM
- Fold Effect = Ki OH-PCB1/Ki OH-PCB1 WT (SULT1E1 F80A): 12
- Ki (SULT1E1 F80A; [3]): 730 nM
- Ki [1]: 65 nM
- Fold Effect = Ki OH-PCB1/Ki OH-PCB1 WT (SULT1E1 Y239A): 5.7
- Ki (SULT1E1 Y239A; [3]): 340 nM
- Ki [2]: 63 nM
